Measurements reported in publication PMC12736194, “1-Azinyl-1′-Alkenylferrocenes with Anticholinesterase, Antioxidant, and Antiaggregating Activities as Multifunctional Agents for Potential Treatment of Alzheimer’s Disease” (Pharmaceuticals, 2025).

Assays:
[1] = ABTS radical cation scavenging activity assay;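 as to Exp. ABTS, TEAC: same experimental ABTS TEAC values reprinted in Table 4 beside calculated BDE and IP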; settings: for Exp. ABTS, TEAC: Ethanol, Table 4; for IC50: ABTS^•+ 100 μM; for IC50 / ABTS^•+-Scavenging Activity, TEAC: ethanol, 1 h; for ABTS^•+-Scavenging Activity, TEAC: Trolox equivalent antioxidant capacity, mean ± SEM, n = 3
[2] = Ferric reducing antioxidant power (FRAP) assay;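 as to Exp. FRAP, TE: same experimental FRAP TE values reprinted in Table 4 beside calculated BDE and IP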; settings: for Exp. FRAP, TE: Water, Table 4; for Ferric Reducing Antioxidant Power, TE: Trolox equivalents, acetate buffer pH 3.6, 1 h, 37 °C
[3] = target: T1, equine (Equus caballus) serum BChE (EcBChE) (Equus caballus, UniProt P81908); assay: Inhibition of EcBChE (spectrophotometric, BTCh iodide substrate); format: biochemical; settings: mean ± SEM, n = 3; for Inhibition of EcBChE, % inhibition at 20 μM: compound 20 μM, n.a. = not active; for IC50: K/Na-phosphate buffer pH 7.5, 25 °C
T1 construct: equine (Equus caballus) serum BChE (EcBChE); purchased Sigma-Aldrich; host or cells: horse serum
Method: (§1) In these experiments, human (Homo sapiens) erythrocyte AChE (HsAChE), equine (Equus caballus) serum BChE (EcBChE), and porcine (Sus scrofa) liver CES (SsCES) were used because of their ready availability, relatively low cost, and high sequence homology of EcBChE and SsCES to the corresponding human enzymes.
(§2) Enzymes, substrates, and reference compounds were sourced from Sigma-Aldrich (St. Louis, MO, USA). Enzyme activity was measured spectrophotometrically according to [91] using ATCh iodide, BTCh iodide, and 4-NPA as substrates for HsAChE, EcBChE, and SsCES, respectively. Experimental conditions included a K/Na-phosphate buffer (100 mM), at 25 °C, with pH 7.5 for AChE and BChE assays, and pH 8.0 for CES assays. Measurements were conducted on a BioRad Benchmark Plus microplate spectrophotometer (Hercules, CA, USA). Test compounds were dissolved in DMSO with a final solvent concentration of 2% (v/v) in the incubation mixture.

[4] = target: T2, peripheral anionic site (PAS) of Electrophorus electricus AChE (EeAChE) (Electrophorus electricus, UniProt O42275); assay: Propidium displacement from the EeAChE PAS (fluorescence); format: binding; settings: compound concentration 20 µM; EeAChE 7 μM, propidium iodide 8 μM, Tris-HCl pH 8.0; n.a. = not active
T2 construct: purchased Sigma-Aldrich type VI-S
Method: A fluorescence-based assay assessed the ability of test compounds to competitively displace propidium iodide from AChE’s PAS [65, 93]. […] EeAChE (7 μM) was incubated with 20 μM test compounds in Tris-HCl buffer (pH 8.0) for 15 min, followed by addition of propidium iodide (8 μM) as described in detail in [95]. Fluorescence readings (530 nm excitation, 600 nm emission) were obtained using a FLUOStar Optima microplate reader (LabTech, Ortenberg, Germany). Displacement (%) was calculated.

[5] = target: T3, human β-amyloid (1–42) (HsAβ42) (Homo sapiens, UniProt P05067); assay: Inhibition of HsAβ42 self-aggregation (thioflavin T fluorescence); format: biochemical; settings: HsAβ42 50 µM, compound 100 µM, 24 h, 37 °C; n.a. = not active
T3 construct: purchased AnaSpec Inc
Method: The potential of compounds from all three groups (1a-e, 5a-e, 7a-d) to inhibit HsAβ42 self-aggregation was evaluated using a Thioflavin T (ThT) fluorescence assay.
Inhibition of HsAβ42 self-aggregation by test compounds was studied using the thioflavin T (ThT) fluorescence method with minor modifications as described in detail in [79]. Lyophilized HFIP-pretreated HsAβ42 (AnaSpec Inc., Fremont, CA, USA, 0.5 mg) was dissolved in DMSO to obtain a stable 500 μM solution. The samples of 50 μM HsAβ42 in 215 mM Na-phosphate buffer pH 8.0 were incubated for 24 h at 37 °C in the absence or presence of 100 μM test compounds. Myricetin in the same concentration was used as a reference. After incubation, 5 μM ThT in 50 mM glycine-NaOH buffer pH 8.5 was added, and the fluorescence was measured at 440 nm (exc.) and 485 nm (emis.) with a FLUOStar Optima microplate reader. Blanks consisted of 215 mM Na-phosphate buffer, pH 8.0, 20% (v/v) DMSO or test compounds, respectively. The inhibition (%) of HsAβ42 self-aggregation by the test compounds was calculated.

[6] = tested on: porcine (Sus scrofa) liver CES (SsCES); assay: Inhibition of SsCES (spectrophotometric, 4-NPA substrate); format: biochemical; settings: mean ± SEM, n = 3; for Inhibition of SsCES, % inhibition at 20 μM: compound 20 μM, n.a. = not active
Source text: as §1
Although the dominant carboxylesterase in porcine liver is CES1 [64], the preparation sourced from Sigma-Aldrich is not a purified or recombinant CES1. Therefore, we have designated the preparation used in our experimental studies as SsCES. However, in computational molecular docking studies, it is necessary to choose a single defined protein as the docking target. Thus, the logical choice for our computational studies of CES was the most abundant and best characterized isoform found in porcine liver, which is SsCES1.
as §2

[7] = target: T4, human (Homo sapiens) erythrocyte AChE (HsAChE) (Homo sapiens, UniProt P22303); assay: Inhibition of HsAChE (spectrophotometric, ATCh iodide substrate); format: biochemical; settings: mean ± SEM, n = 3; for Inhibition of HsAChE, % inhibition at 20 μM: compound 20 μM, n.a. = not active
T4 construct: human (Homo sapiens) erythrocyte AChE (HsAChE); purchased Sigma-Aldrich; host or cells: human erythrocytes
Method: as §1, §2

T4 sequence (P22303 32-617 isoform P22303-2 limits assumed): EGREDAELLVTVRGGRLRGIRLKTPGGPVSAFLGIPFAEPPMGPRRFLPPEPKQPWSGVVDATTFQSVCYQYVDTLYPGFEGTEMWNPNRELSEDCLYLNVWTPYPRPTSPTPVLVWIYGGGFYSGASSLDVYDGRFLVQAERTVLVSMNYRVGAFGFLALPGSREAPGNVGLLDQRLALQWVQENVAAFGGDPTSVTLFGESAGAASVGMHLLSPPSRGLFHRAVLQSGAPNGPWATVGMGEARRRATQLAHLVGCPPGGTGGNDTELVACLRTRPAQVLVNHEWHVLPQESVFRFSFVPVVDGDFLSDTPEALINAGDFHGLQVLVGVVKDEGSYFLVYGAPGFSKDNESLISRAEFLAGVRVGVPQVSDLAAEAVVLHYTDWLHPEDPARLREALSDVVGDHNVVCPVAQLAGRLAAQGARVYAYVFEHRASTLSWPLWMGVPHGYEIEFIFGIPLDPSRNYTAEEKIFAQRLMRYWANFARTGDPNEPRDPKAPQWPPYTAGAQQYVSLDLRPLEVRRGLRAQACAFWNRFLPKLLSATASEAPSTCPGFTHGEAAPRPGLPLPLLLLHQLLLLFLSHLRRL
T1 sequence (P81908 whole entry): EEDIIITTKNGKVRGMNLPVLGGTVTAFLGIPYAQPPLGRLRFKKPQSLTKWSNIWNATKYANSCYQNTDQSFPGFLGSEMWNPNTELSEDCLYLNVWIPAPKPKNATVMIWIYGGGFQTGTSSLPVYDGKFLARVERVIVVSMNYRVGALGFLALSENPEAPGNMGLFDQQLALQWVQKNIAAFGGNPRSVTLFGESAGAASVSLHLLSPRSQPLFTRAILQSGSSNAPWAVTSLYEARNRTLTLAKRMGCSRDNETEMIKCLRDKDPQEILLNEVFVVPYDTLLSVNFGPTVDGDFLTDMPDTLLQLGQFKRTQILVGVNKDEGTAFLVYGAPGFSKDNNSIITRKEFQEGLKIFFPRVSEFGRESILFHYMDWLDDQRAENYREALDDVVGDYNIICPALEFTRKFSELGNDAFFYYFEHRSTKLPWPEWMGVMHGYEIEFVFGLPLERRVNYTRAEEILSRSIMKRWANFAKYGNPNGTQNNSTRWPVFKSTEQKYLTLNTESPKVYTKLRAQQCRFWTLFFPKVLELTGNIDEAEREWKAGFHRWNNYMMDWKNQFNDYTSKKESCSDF
T3 sequence (P05067 672-713 limits assumed): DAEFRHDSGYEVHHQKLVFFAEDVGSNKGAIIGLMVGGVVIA
T2 sequence (O42275 24-633): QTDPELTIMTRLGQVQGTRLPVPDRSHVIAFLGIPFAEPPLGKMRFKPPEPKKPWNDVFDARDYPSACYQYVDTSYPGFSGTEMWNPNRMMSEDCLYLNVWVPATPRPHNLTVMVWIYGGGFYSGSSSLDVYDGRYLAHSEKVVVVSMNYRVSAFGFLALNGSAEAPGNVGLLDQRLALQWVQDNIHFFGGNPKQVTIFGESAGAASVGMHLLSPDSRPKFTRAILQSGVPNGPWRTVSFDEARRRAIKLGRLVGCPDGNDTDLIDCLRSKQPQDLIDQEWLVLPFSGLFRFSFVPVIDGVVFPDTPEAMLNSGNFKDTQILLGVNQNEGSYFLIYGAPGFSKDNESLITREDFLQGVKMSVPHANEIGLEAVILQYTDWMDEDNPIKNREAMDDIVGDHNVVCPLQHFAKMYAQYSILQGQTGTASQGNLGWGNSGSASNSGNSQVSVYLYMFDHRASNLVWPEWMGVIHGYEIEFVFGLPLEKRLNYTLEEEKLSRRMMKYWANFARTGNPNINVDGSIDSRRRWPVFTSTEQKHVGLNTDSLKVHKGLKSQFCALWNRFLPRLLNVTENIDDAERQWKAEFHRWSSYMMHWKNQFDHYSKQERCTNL

Structure (SMILES) | Exp. ABTS, TEAC [1] | Exp. FRAP, TE [2] | Inhibition of EcBChE, % inhibition at 20 μM [3] [%] | Propidium Displacement, (%) [4] | HsAβ42 self-Aggregation Inhibition, (%) [5] [%] | IC50 [1] [µM] | ABTS^•+-Scavenging Activity, TEAC [1] | Ferric Reducing Antioxidant Power, TE [2] | Inhibition of SsCES, % inhibition at 20 μM [6] [%] | Inhibition of HsAChE, % inhibition at 20 μM [7] [%] | IC50 [3] [µM] | IC50 ([7]; K/Na-phosphate buffer pH 7.5, 25 °C) [µM] | IC50 ([6]; K/Na-phosphate buffer pH 8.0, 25 °C) [µM]
C=C(C)[c-]1cccc1.[Fe+2].c1ccc2c(-[c-]3cccc3)c3ccccc3[nH+]c2c1 [5cp] | 1.35 ± 0.06 | 2.45 ± 0.14 | – | – | – | – | – | – | – | – | – | – | –
[Fe+2].c1cc[c-](-c2ccnnc2)c1.c1cc[cH-]c1 [1e, 1-(pyridazin-4-yl)ferrocene] | – | – | 13.1 ± 1.4 | zero | 53.3 ± 3.7 | 9.2 ± 0.5 | 2.3 ± 0.1 | 1.72 ± 0.02 | – | – | – | – | –
[Fe+2].c1cc[cH-]c1.c1ccc(-[c-]2cccc2)nc1 [1a] | 2.10 ± 0.10 | – | 20.3 ± 1.4 | zero | 43.4 ± 3.4 | 10.8 ± 0.6 | 2.1 ± 0.1 | 2.05 ± 0.02 | 17.5 ± 1.3 | – | – | – | –
C=C(C)[c-]1cccc1.[Fe+2].c1ccc2[nH+]c(-[c-]3cccc3)ccc2c1 [5bp] | 4.30 ± 0.20 | 3.13 ± 1.7 | – | – | – | – | – | – | – | – | – | – | –
C=C(C)[c-]1cccc1.[Fe+2].c1ccc2c(-[c-]3cccc3)c3ccccc3nc2c1 [5c] | – | – | – | 10.5 ± 0.9% | 90.1 ± 7.2 | 15.8 ± 0.8 | 1.35 ± 0.06 | 2.45 ± 0.14 | – | 36.7 ± 3.3 | 96.7 ± 6.6 | – | –
C=C[c-]1cccc1.[Fe+2].c1ccc(-[c-]2cccc2)nc1 [7a, 1-(Pyridin-2-yl)-1′-Vinylferrocene] | 2.60 ± 0.03 | – | – | 9.6 ± 0.7% | 84.6 ± 7.5 | 8.4 ± 0.3 | 2.60 ± 0.08 | 2.13 ± 0.03 | 18.5 ± 1.6 | – | 20.1 ± 1.6 | 16.5 ± 1.3 | –
C=C[c-]1cccc1.[Fe+2].c1ccc2[nH+]c(-[c-]3cccc3)ccc2c1 [7bp] | – | 2.21 ± 0.02 | – | – | – | – | – | – | – | – | – | – | –
[Fe+2].c1cc[cH-]c1.c1ccc2c(-[c-]3cccc3)c3ccccc3[nH+]c2c1 [1cp] | 1.50 ± 0.08 | 1.59 ± 0.17 | – | – | – | – | – | – | – | – | – | – | –
O=[N+]([O-])c1ccc(OP(=O)(O)Oc2ccc([N+](=O)[O-])cc2)cc1 [BNPP, bis-4-nitrophenyl phosphate, reference compound] | – | – | – | – | – | – | – | – | 99.1 ± 0.9 | – | – | – | 1.8
C=C(C)[c-]1cccc1.[Fe+2].c1ccc(-[c-]2cccc2)nc1 [5a] | 2.20 ± 0.10 | – | 18.3 ± 1.6 | zero | 62.4 ± 4.9 | 9.4 ± 0.5 | 2.2 ± 0.1 | 2.85 ± 0.13 | – | 4.4 ± 1.1 | – | – | –
C=C(C)[c-]1cccc1.[Fe+2].c1cc[c-](-c2ccnnc2)c1 [5e, 1-Isopropenyl-1′-(Pyridazin-4-yl)Ferrocene] | – | – | – | zero | 48.6 ± 3.5 | 9.3 ± 0.4 | 2.5 ± 0.2 | 2.65 ± 0.02 | – | – | – | – | –
